Legend:
[1] = test system: windgrass; experiment: Test Example 4: herbicidal effect by soil treatment (Table 19, symbol L); format: in vivo, windgrass (Apera spica-venti); details: amount of applied herbicide 320 g/ha
Method in brief: (§1)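 Emulsion of test compound, water-diluted to predetermined amount, sprayed on soil after sowing (seed depth ~1.5 cm, sterilized diluvial soil). Greenhouse, 25–30° C. Effect graded at three weeks post-spray.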

[2] = test system: blackgrass; experiment: Test Example 5: herbicidal effect by foliage application, plastic box (Table 20, symbol J); format: in vivo, blackgrass (Alopecurus myosuroides); details: foliage application, 320 g/ha, three weeks after application
Method in brief: (§2)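 Post-emergence foliar test in sterilized diluvial soil. Compound applied as water-diluted emulsion at a predetermined rate to 14-day-old plants; evaluation at three weeks.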

[3] = test system: persian speedwell; experiment: Test Example 4: herbicidal effect by soil treatment (Table 19, symbol R); format: in vivo, Persian speedwell (Veronica persica); details: amount of applied herbicide 320 g/ha
Method in brief: as §1

[4] = test system: green foxtail; experiment: Test Example 4: herbicidal effect by soil treatment (Table 19, symbol G); format: in vivo, green foxtail (Setaria viridis); details: amount of applied herbicide 320 g/ha
Method in brief: as §1

[5] = test system: green foxtail; experiment: Test Example 5: herbicidal effect by foliage application, plastic box (Table 20, symbol G); format: in vivo, green foxtail (Setaria viridis); details: foliage application, 320 g/ha, three weeks after application
Method in brief: as §2

[6] = test system: rice flat sedge; experiment: Test Example 3: herbicidal effect by foliage application, Wagner pot (Table 18, symbol E); format: in vivo, rice flat sedge (Cyperus iria); details: amount of applied herbicide 320 g/ha
Method in brief: (§3)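 Plants were sown in alluvial soil held under 0.1–0.5 cm standing water and grown 14 days in a greenhouse at 25–30 °C. An emulsifiable formulation, water-diluted to the set dose, was then sprayed onto the foliage, and effects were scored three weeks later using previously defined criteria.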

[7] = test system: Japanese bulrush; experiment: Test Example 1: herbicidal activity, application before weed generation under submerged conditions (Table 16, symbol B); format: in vivo, Japanese bulrush (Schoenoplectus juncoides); details: amount of applied herbicide 320 g/ha
Method in brief: (§4)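 Alluvial soil was flooded to 4 cm depth, weed seeds were sown mixed and 2.5-leaf rice seedlings were transplanted. On sowing day, the compound's emulsion, diluted in water to a set dose, was applied to the water surface. Plants grew at 25–30 °C and were scored 0–5 after three weeks.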

[8] = test system: late watergrass; experiment: Test Example 1: herbicidal activity, application before weed generation under submerged conditions (Table 16, symbol A); format: in vivo, late watergrass (Echinochloa oryzicola); details: amount of applied herbicide 320 g/ha
Method in brief: as §4

[9] = test system: wild oat; experiment: Test Example 5: herbicidal effect by foliage application, plastic box (Table 20, symbol I); format: in vivo, wild oat (Avena fatua); details: foliage application, 320 g/ha, three weeks after application
Method in brief: as §2

[10] = test system: southern crabgrass; experiment: Test Example 5: herbicidal effect by foliage application, plastic box (Table 20, symbol F); format: in vivo, southern crabgrass (Digitaria ciliaris); details: foliage application, 320 g/ha, three weeks after application
Method in brief: as §2

[11] = test system: velvetleaf; experiment: Test Example 5: herbicidal effect by foliage application, plastic box (Table 20, symbol M); format: in vivo, velvetleaf (Abutilon theophrasti); details: foliage application, 320 g/ha, three weeks after application
Method in brief: as §2

[12] = test system: redroot pigweed; experiment: Test Example 5: herbicidal effect by foliage application, plastic box (Table 20, symbol N); format: in vivo, redroot pigweed (Amaranthus retroflexus); details: foliage application, 320 g/ha, three weeks after application
Method in brief: as §2

[13] = test system: velvetleaf; experiment: Test Example 4: herbicidal effect by soil treatment (Table 19, symbol M); format: in vivo, velvetleaf (Abutilon theophrasti); details: amount of applied herbicide 320 g/ha
Method in brief: as §1

[14] = test system: southern crabgrass; experiment: Test Example 4: herbicidal effect by soil treatment (Table 19, symbol F); format: in vivo, southern crabgrass (Digitaria ciliaris); details: amount of applied herbicide 320 g/ha
Method in brief: as §1

[15] = test system: windgrass; experiment: Test Example 5: herbicidal effect by foliage application, plastic box (Table 20, symbol L); format: in vivo, windgrass (Apera spica-venti); details: foliage application, 320 g/ha, three weeks after application
Method in brief: as §2

[16] = test system: barnyard grass; experiment: Test Example 5: herbicidal effect by foliage application, plastic box (Table 20, symbol H); format: in vivo, barnyard grass (Echinochloa crus-galli); details: foliage application, 320 g/ha, three weeks after application
Method in brief: as §2

[17] = test system: Italian ryegrass; experiment: Test Example 4: herbicidal effect by soil treatment (Table 19, symbol K); format: in vivo, Italian ryegrass (Lolium multiflorum); details: amount of applied herbicide 320 g/ha
Method in brief: as §1

[18] = test system: barnyard grass; experiment: Test Example 3: herbicidal effect by foliage application, Wagner pot (Table 18, symbol H); format: in vivo, barnyard grass (Echinochloa crus-galli); details: amount of applied herbicide 320 g/ha
Method in brief: as §3

Structure (SMILES): COc1ccccc1-c1sc2cc(F)ccc2c1-c1c(O)c(C)nn(C)c1=O [3-003]
- herbicidal effect, L: windgrass [1]: 3 (Herbicidal rate of 40% or more and less than 70%)
- J: blackgrass, herbicidal effect grade [2]: 5 (Herbicidal rate of 90% or more (almost completely withered))
- herbicidal effect, R: persian speedwell [3]: 4 (Herbicidal rate of 70% or more and less than 90%)
- herbicidal effect, G: green foxtail [4]: 5 (Herbicidal rate of 90% or more (almost completely withered))
- G: green foxtail, herbicidal effect grade [5]: 5 (Herbicidal rate of 90% or more (almost completely withered))
- herbicidal effect on E: rice flat sedge [6]: 5 (Herbicidal rate of 90% or more (almost completely withered))
- Herbicidal effect, B: Japanese bulrush [7]: 4 (Herbicidal rate of 70% or more and less than 90%)
- Herbicidal effect, A: late watergrass [8]: 3 (Herbicidal rate of 40% or more and less than 70%)
- I: wild oat, herbicidal effect grade [9]: 5 (Herbicidal rate of 90% or more (almost completely withered))
- F: southern crabgrass, herbicidal effect grade [10]: 5 (Herbicidal rate of 90% or more (almost completely withered))
- M: velvetleaf, herbicidal effect grade [11]: 5 (Herbicidal rate of 90% or more (almost completely withered))
- N: redroot pigweed, herbicidal effect grade [12]: 5 (Herbicidal rate of 90% or more (almost completely withered))
- herbicidal effect, M: velvetleaf [13]: 3 (Herbicidal rate of 40% or more and less than 70%)
- herbicidal effect, F: southern crabgrass [14]: 4 (Herbicidal rate of 70% or more and less than 90%)
- L: windgrass, herbicidal effect grade [15]: 5 (Herbicidal rate of 90% or more (almost completely withered))
- H: barnyard grass, herbicidal effect grade [16]: 5 (Herbicidal rate of 90% or more (almost completely withered))
- herbicidal effect, K: Italian ryegrass [17]: 4 (Herbicidal rate of 70% or more and less than 90%)
- herbicidal effect on H: barnyard grass [18]: 5 (Herbicidal rate of 90% or more (almost completely withered))

Structure (SMILES): CCOc1ccccc1-c1sc2cc(F)ccc2c1-c1c(O)c(C)nn(C)c1=O [3-006]
- herbicidal effect, L: windgrass [1]: 5 (Herbicidal rate of 90% or more (almost completely withered))
- J: blackgrass, herbicidal effect grade [2]: 5 (Herbicidal rate of 90% or more (almost completely withered))
- herbicidal effect, R: persian speedwell [3]: 5 (Herbicidal rate of 90% or more (almost completely withered))
- herbicidal effect, G: green foxtail [4]: 5 (Herbicidal rate of 90% or more (almost completely withered))
- G: green foxtail, herbicidal effect grade [5]: 5 (Herbicidal rate of 90% or more (almost completely withered))
- herbicidal effect on E: rice flat sedge [6]: 5 (Herbicidal rate of 90% or more (almost completely withered))
- Herbicidal effect, B: Japanese bulrush [7]: 5 (Herbicidal rate of 90% or more (almost completely withered))
- Herbicidal effect, A: late watergrass [8]: 5 (Herbicidal rate of 90% or more (almost completely withered))
- I: wild oat, herbicidal effect grade [9]: 5 (Herbicidal rate of 90% or more (almost completely withered))
- F: southern crabgrass, herbicidal effect grade [10]: 5 (Herbicidal rate of 90% or more (almost completely withered))
- M: velvetleaf, herbicidal effect grade [11]: 5 (Herbicidal rate of 90% or more (almost completely withered))
- N: redroot pigweed, herbicidal effect grade [12]: 5 (Herbicidal rate of 90% or more (almost completely withered))
- herbicidal effect, M: velvetleaf [13]: 4 (Herbicidal rate of 70% or more and less than 90%)
- herbicidal effect, F: southern crabgrass [14]: 5 (Herbicidal rate of 90% or more (almost completely withered))
- L: windgrass, herbicidal effect grade [15]: 5 (Herbicidal rate of 90% or more (almost completely withered))
- H: barnyard grass, herbicidal effect grade [16]: 5 (Herbicidal rate of 90% or more (almost completely withered))
- herbicidal effect, K: Italian ryegrass [17]: 2 (Herbicidal rate of 20% or more and less than 40%)
- herbicidal effect on H: barnyard grass [18]: 5 (Herbicidal rate of 90% or more (almost completely withered))

Structure (SMILES): CCCC(=O)Oc1c(C)nn(C)c(=O)c1-c1c(-c2ccc(OC)cc2)sc2cc(F)ccc12 [3-008]
- herbicidal effect, L: windgrass [1]: 0 (Herbicidal rate of 5% or less (almost no effect))
- J: blackgrass, herbicidal effect grade [2]: 1 (Herbicidal rate of 5% or more and less than 20%)
- herbicidal effect, R: persian speedwell [3]: 5 (Herbicidal rate of 90% or more (almost completely withered))
- herbicidal effect, G: green foxtail [4]: 0 (Herbicidal rate of 5% or less (almost no effect))
- G: green foxtail, herbicidal effect grade [5]: 3 (Herbicidal rate of 40% or more and less than 70%)
- herbicidal effect on E: rice flat sedge [6]: 5 (Herbicidal rate of 90% or more (almost completely withered))
- Herbicidal effect, B: Japanese bulrush [7]: 5 (Herbicidal rate of 90% or more (almost completely withered))
- Herbicidal effect, A: late watergrass [8]: 5 (Herbicidal rate of 90% or more (almost completely withered))
- I: wild oat, herbicidal effect grade [9]: 0 (Herbicidal rate of 5% or less (almost no effect))
- F: southern crabgrass, herbicidal effect grade [10]: 4 (Herbicidal rate of 70% or more and less than 90%)
- M: velvetleaf, herbicidal effect grade [11]: 5 (Herbicidal rate of 90% or more (almost completely withered))
- N: redroot pigweed, herbicidal effect grade [12]: 5 (Herbicidal rate of 90% or more (almost completely withered))
- herbicidal effect, M: velvetleaf [13]: 0 (Herbicidal rate of 5% or less (almost no effect))
- herbicidal effect, F: southern crabgrass [14]: 0 (Herbicidal rate of 5% or less (almost no effect))
- L: windgrass, herbicidal effect grade [15]: 3 (Herbicidal rate of 40% or more and less than 70%)
- H: barnyard grass, herbicidal effect grade [16]: 4 (Herbicidal rate of 70% or more and less than 90%)
- herbicidal effect, K: Italian ryegrass [17]: 0 (Herbicidal rate of 5% or less (almost no effect))
- herbicidal effect on H: barnyard grass [18]: 4 (Herbicidal rate of 70% or more and less than 90%)

Structure (SMILES): COc1cc(F)ccc1-c1sc2cc(F)ccc2c1-c1c(O)c(C)nn(C)c1=O [3-009]
- herbicidal effect, L: windgrass [1]: 5 (Herbicidal rate of 90% or more (almost completely withered))
- J: blackgrass, herbicidal effect grade [2]: 5 (Herbicidal rate of 90% or more (almost completely withered))
- herbicidal effect, R: persian speedwell [3]: 5 (Herbicidal rate of 90% or more (almost completely withered))
- herbicidal effect, G: green foxtail [4]: 4 (Herbicidal rate of 70% or more and less than 90%)
- G: green foxtail, herbicidal effect grade [5]: 5 (Herbicidal rate of 90% or more (almost completely withered))
- herbicidal effect on E: rice flat sedge [6]: 5 (Herbicidal rate of 90% or more (almost completely withered))
- Herbicidal effect, B: Japanese bulrush [7]: 3 (Herbicidal rate of 40% or more and less than 70%)
- Herbicidal effect, A: late watergrass [8]: 1 (Herbicidal rate of 5% or more and less than 20%)
- I: wild oat, herbicidal effect grade [9]: 5 (Herbicidal rate of 90% or more (almost completely withered))
- F: southern crabgrass, herbicidal effect grade [10]: 5 (Herbicidal rate of 90% or more (almost completely withered))
- M: velvetleaf, herbicidal effect grade [11]: 5 (Herbicidal rate of 90% or more (almost completely withered))
- N: redroot pigweed, herbicidal effect grade [12]: 5 (Herbicidal rate of 90% or more (almost completely withered))
- herbicidal effect, M: velvetleaf [13]: 3 (Herbicidal rate of 40% or more and less than 70%)
- herbicidal effect, F: southern crabgrass [14]: 5 (Herbicidal rate of 90% or more (almost completely withered))
- L: windgrass, herbicidal effect grade [15]: 5 (Herbicidal rate of 90% or more (almost completely withered))
- H: barnyard grass, herbicidal effect grade [16]: 5 (Herbicidal rate of 90% or more (almost completely withered))
- herbicidal effect, K: Italian ryegrass [17]: 4 (Herbicidal rate of 70% or more and less than 90%)
- herbicidal effect on H: barnyard grass [18]: 5 (Herbicidal rate of 90% or more (almost completely withered))

— US20230085307A1, “PYRIDAZINONE COMPOUND AND HERBICIDE” (NISSAN CHEMICAL CORPORATION, priority 2019, published 2023)
